Values of other authors in patent US9856259B2, “Heterocyclic compounds and uses thereof” (Plexxikon Inc., priority 2014, dated 2018).

Columns and labels:
[1] = test system: cancer cells such leukemia and lymphoma, multiple myeloma cells, NUT midline carcinoma and glioblastoma cells; details: literature; cited from earlier work
[2] = test system: MYC promoter / c-myc transcription in MV-4-11 cells; details: literature (Dawson M A et al. 2011); cited from earlier work

Q: What does the source list for `COc1cc2c(cc1-c1c(C)noc1C)ncc1[nH]c(=O)n([C@H](C)c3ccccn3)c12` [iBET 151]?
A: activity in variety of cancer cells [1]: have shown activity; BRD4 recruitment to the MYC promoter [2]: disrupt; c-myc transcription [2]: downregulate
